Measured values published in publication PMC9852173, “[^111In]In-CP04 as a novel cholecystokinin-2 receptor ligand with theranostic potential in patients with progressive or metastatic medullary thyroid cancer: final results of a GRAN-T-MTC Phase I clinical trial” (European Journal of Nuclear Medicine and Molecular Imaging, 2022).

Legend:
[1] = in vivo
Description: On the WBS planar imaging at 1, 4, 24, and 48 h (including standard activity) and quantitative SPECT/CT imaging at 4 and 24 h, the regions of interest (ROI) were drawn over the kidneys and over the lesions when visible. The counts in the ROIs were quantified to activity by cross-calibration with the activity determined in the corresponding volumes of interest (VOIs) drawn on the quantitative SPECT/CT image at 24 h. Time-activity curves were determined by fitting exponential curves through the uptake data. Time integrated activity coefficients (TIAC) were calculated for ^111In and ^177Lu by integration of the TIACs multiplied with their physical decaty functions. The absorbed dose per unit activity in each organ was determined by multiplication with the ^111In and ^177Lu S-values according to the MIRD formalism. […] The effect on the kidney absorbed dose after co-administration of the nephroprotective agent Gelofusine was evaluated. All dosimetry calculations were performed with the Hermes-OLINDA v2.1 hybrid 2D dosimetry software.

MTC [2] = details: meta-analysis; cited from earlier work
From the text: It is well accepted that the molecular imaging modalities outperform conventional imaging (US, CT, and MRI in the present study) in the setting of recurrent disease, in particular PET/CT imaging with [^18F]F-DOPA [19–21].

MTC [3] = experiment: [18F]FDG PET/CT restaging prior to enrolment; format: in vivo, human; details: CEA 80 to 2087 ng/mL
From the text: Sixteen patients with histologically proven and advanced MTC were enrolled in the study based on the specific inclusion and exclusion criteria. [^18F]FDG PET/CT, ceCT, or MRI imaging (initiated at Ct concentrations above 150 pg/mL or clinical suspicion of disease at a specific site) was positive in 12 patients; in four, short calcitonin doubling time (CtDT) with negative conventional imaging (CT of the neck/thorax, abdomen; [^18F]FDG PET/CT) was present.
It is well accepted that the molecular imaging modalities outperform conventional imaging (US, CT, and MRI in the present study) in the setting of recurrent disease, in particular PET/CT imaging with [^18F]F-DOPA [19–21]. […] With patient-based detection rate of over 80%, [^111In]In-CP04 slightly outperformed conventional and molecular imaging modalities (detection rate of 75%) in the present study. […] However, the patient population in our study was highly preselected and small, which likely affected the results; moreover, the reported detection rate in the mentioned meta-analysis was likely affected by the relatively low Ct concentrations (above 150 pg/mL in only 73% of patients). […]

[4] = design: species or system human; details: in vivo
Description: The primary objective of the trial was the evaluation of the safety of the administration of [^111In]In-CP04 at low mass amount of 10 μg CP04 and at high mass amount of 50 μg CP04 radiolabelled with 200±10% MBq of ^111In. Therefore, the definition of the type, frequency, severity, timing, and relation to the studied radiopharmaceutical administration of Adverse Events assessed by CTCAE v4.0 was used as primary endpoint to define the safety and tolerability of [^111In]In-CP04.
Detailed physical examinations with vital sign assessment, 12-lead ECG, and laboratory testing were performed to investigate the safety of intravenous administration of [^111In]In-CP04. The overall safety profile of the tested CCK-2/gastrin receptor ligand as characterized by timing, type, frequency, severity of adverse events (AE), and laboratory abnormalities was based on Common Terminology Criteria for Adverse Events (CTCAE) version 4.0. Since this was a Phase I clinical trial, the project was assumed as having a high-risk potential for the patient, and therefore, special care was taken with the monitoring of the study. In total, eight control visits were carried out over 4 months of the follow-up with physical examination, laboratory testing, and ECG. Additionally, Ct and proCt concentrations were measured after each [^111In]In-CP04 injection at predefined time points (0, 2, 5, 10, 20 min).
(table shift speed 12 cm/min).

[5] = in vivo; remark: listed apart in the source
Description: The duration of [^111In]In-CP04 administration with the low and high mass amount was 5 min and 30 min, respectively. During the injection of the IMP, a dynamic scan of the kidneys and stomach was performed for 30 min (anterior and posterior acquisition). The imaging protocol included a mandatory whole-body scan (WBS) at 1 h, 4 h, 24 h, and 48 h p.i. (table shift speed 12 cm/min). A quantitative SPECT/CT scan of the abdomen was performed at 24 h p.i. as well as an additional non-quantitative SPECT/CT scan of the area where pathological lesions were detected during WBS, if the scan duration was tolerated by the patient. Gelofusine (B. Braun, Melsungen, Germany) was administered as an infusion of 1 mL/kg body weight over 10 min followed by a 3-h infusion of 0.02 mL/kg/min after the injection of the IMPD. Physiological parameters (heart rate, blood pressure, oxygen saturation) were repeatedly measured during and after the [^111In]In-CP04 infusion as per study protocol.
During the [^111In]In-CP04 administration blood samples for dosimetry and pharmacokinetic purposes were taken at the set time intervals according to the study protocol: biodistribution and dosimetry data were acquired based on serial planar and SPECT/CT images, and blood and urine collection at regular time intervals. Urine samples were collected up to 24 h after the tracer injection to determine the bladder wall absorbed dose. On the WBS planar imaging at 1, 4, 24, and 48 h (including standard activity) and quantitative SPECT/CT imaging at 4 and 24 h, the regions of interest (ROI) were drawn over the kidneys and over the lesions when visible. The counts in the ROIs were quantified to activity by cross-calibration with the activity determined in the corresponding volumes of interest (VOIs) drawn on the quantitative SPECT/CT image at 24 h. Time-activity curves were determined by fitting exponential curves through the uptake data. Time integrated activity coefficients (TIAC) were calculated for ^111In and ^177Lu by integration of the TIACs multiplied with their physical decaty functions. The absorbed dose per unit activity in each organ was determined by multiplication with the ^111In and ^177Lu S-values according to the MIRD formalism. The blood time-activity curve was used to estimate the absorbed dose to the bone marrow. The activity concentration in the bone marrow was considered to be equal to the blood activity concentration. The activity and volumes of the urine samples were used to determine the urinary clearance rate, and with the dynamic bladder model, the TIAC in the bladder and the absorbed dose to the bladder wall were determined. The effect on the kidney absorbed dose after co-administration of the nephroprotective agent Gelofusine was evaluated. […]

CSCC[C@H](NC(=O)[C@H](Cc1c[nH]c2ccccc12)NC(=O)CNC(=O)[C@H](Cc1ccc(O)cc1)NC(=O)[C@H](C)NC(=O)[C@@H](CCC(=O)O)NC(=O)[C@@H](CCC(=O)O)NC(=O)[C@@H](CCC(=O)O)NC(=O)[C@@H](CCC(=O)O)NC(=O)[C@@H](CCC(=O)O)NC(=O)[C@@H](CCC(=O)O)NC(=O)CN1CCN(CC(=O)O)CCN(CC(=O)O)CCN(CC(=O)O)CC1)C(=O)N[C@@H](CC(=O)O)C(=O)N[C@@H](Cc1ccccc1)C(N)=O [CP04, DOTA-(DGlu)6-Ala-Tyr-Gly-Trp-Met-Asp-Phe-NH2]
projected 177Lu absorbed dose to the kidneys [1]: 0.12 Gy/GBq

N[C@@H](Cc1cc(O)c(O)cc1[18F])C(=O)O [[^18F]F-DOPA]
pooled patient-based detection rate (MTC [2]): 66%

OC[C@H]1OC(O)[C@H]([18F])[C@@H](O)[C@@H]1O (stereo partly drawn) [[^18F]FDG]
PET/CT positivity in the present series (MTC [3]): only positive in three patients

CSCC[C@H](NC(=O)[C@H](Cc1c[nH]c2ccccc12)NC(=O)CNC(=O)[C@H](Cc1ccc(O)cc1)NC(=O)[C@H](C)NC(=O)[C@@H](CCC(=O)O)NC(=O)[C@@H](CCC(=O)O)NC(=O)[C@@H](CCC(=O)O)NC(=O)[C@@H](CCC(=O)O)NC(=O)[C@@H](CCC(=O)O)NC(=O)[C@@H](CCC(=O)O)NC(=O)CN1CCN(CC(=O)O)CCN(CC(=O)O)CCN(CC(=O)O)CC1)C(=O)N[C@@H](CC(=O)O)C(=O)N[C@@H](Cc1ccccc1)C(N)=O [[^111In]In-CP04, [^111In]In-DOTA-(DGlu)6-Ala-Tyr-Gly-Trp-Met-Asp-Phe-NH2, metal not drawn]
ECG recordings [4]: No significant changes | laboratory test results during control visits [4]: did not change significantly | performance status (Karnofsky index) [4]: did not change | transient tachycardia, duration [4]: less than 5 minutes | transient tachycardia, heart rate [4]: up to 128 beats/min | kidney absorbed dose [5]: 0.044±0.019 mSv/MBq | organs with highest dose [5]: highest dose to urinary bladder, followed by the kidneys and stomach wall | radiation dose for 200 MBq [5]: about 7 mSv | retention of activity in intestines, stomach and kidneys [5]: < 1 % of IA
